Measurements from US6355799B1, “Substituted benzene compounds, process for their preparation, and herbicidal and defoliant compositions containing them” (ISK Americas Incorporated, priority 1997, dated 2002).

Legend:
Assay type in all cases: in vivo
[1] = test system: upland rice (Oryza sp., var. Tebonnet, RICE); assay: Post-emerge test, crop safety; settings: phytotoxicity rating 0-100 (0 no damage, 100 complete death), 14 days after application
Summary of the method: (§1)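 Rating: 0–100 visual injury, 14 DAA. Application: acetone, 187 l/ha, 15–1000 g ai/ha, flat-fan track sprayer with nozzle 40–45 cm above soil or canopy. Post-emerge runs used 0.25% v/v surfactant on 2–3 leaf plants.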

[2] = test system: field corn (Zea mays L., var. Dekalb 535, CORN); assay: Post-emerge test, crop safety; settings: phytotoxicity rating 0-100 (0 no damage, 100 complete death), 14 days after application
Summary of the method: as §1

[3] = test system: sicklepod (Cassia obtusifolia, CASOB); assay: Post-emerge test, greenhouse herbicide activity screening; settings: phytotoxicity rating 0-100 (0 no damage, 100 complete death), 14 days after application
Summary of the method: (§2)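 Each test used a mechanized track sprayer delivering 187 l/ha of acetone solution at 15–1000 g ai/ha. Post-emerge foliage at 2–3 leaves was treated with added 0.25% v/v non-ionic surfactant and bottom-watered only. Injury was assessed on day 14, where 100 means total kill.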

[4] = test system: lambsquarters (Chenopodium album, CHEAL); assay: as above; settings: phytotoxicity rating 0-100 (0 no damage, 100 complete death), 14 days after application
Summary of the method: as §2

[5] = test system: green foxtail (Setaria viridis, SETVI); assay: as above; settings: phytotoxicity rating 0-100 (0 no damage, 100 complete death), 14 days after application
Summary of the method: as §2

[6] = test system: redroot pigweed (Amaranthus retroflexus, AMARE); assay: as above; settings: phytotoxicity rating 0-100 (0 no damage, 100 complete death), 14 days after application
Summary of the method: as §2

[7] = test system: johnsongrass (Sorghum halepense, SORHA); assay: as above; settings: phytotoxicity rating 0-100 (0 no damage, 100 complete death), 14 days after application
Summary of the method: as §2

[8] = test system: large crabgrass (Digitaria sanguinalis, DIGSA); assay: as above; settings: phytotoxicity rating 0-100 (0 no damage, 100 complete death), 14 days after application
Summary of the method: as §2

[9] = test system: velvetleaf (Abutilon theophrasti, ABUTH); assay: as above; settings: phytotoxicity rating 0-100 (0 no damage, 100 complete death), 14 days after application
Summary of the method: as §2

[10] = test system: ivyleaf morningglory (Ipomoea hederacea, IPOHE); assay: as above; settings: phytotoxicity rating 0-100 (0 no damage, 100 complete death), 14 days after application
Summary of the method: as §2

[11] = test system: barnyardgrass (Echinochloa crus-galli, ECHCG); assay: as above; settings: phytotoxicity rating 0-100 (0 no damage, 100 complete death), 14 days after application
Summary of the method: as §2

[12] = test system: sicklepod (Cassia obtusifolia, CASOB); assay: Pre-emerge test, greenhouse herbicide activity screening; settings: pre-emerge, rated 14 days after application, 0 = no damage, 100 = complete death
Summary of the method: (§3)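 Compounds in acetone were track-sprayed at 15–1000 g ai/ha: pre-emergence onto soil sown the previous day, then top-watered to incorporate and later bottom-watered; post-emergence onto 2–3 leaf plants with 0.25% v/v surfactant, bottom-watered only. Ratings on a 0–100 phytotoxicity scale were taken at day 14.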

[13] = test system: lambsquarters (Chenopodium album, CHEAL); assay: as above; settings: pre-emerge, rated 14 days after application, 0 = no damage, 100 = complete death
Summary of the method: as §3

[14] = test system: green foxtail (Setaria viridis, SETVI); assay: as above; settings: pre-emerge, rated 14 days after application, 0 = no damage, 100 = complete death
Summary of the method: as §3

[15] = test system: johnsongrass (Sorghum halepense, SORHA); assay: as above; settings: pre-emerge, rated 14 days after application, 0 = no damage, 100 = complete death
Summary of the method: as §3

[16] = test system: large crabgrass (Digitaria sanguinalis, DIGSA); assay: as above; settings: pre-emerge, rated 14 days after application, 0 = no damage, 100 = complete death
Summary of the method: as §3

[17] = test system: velvetleaf (Abutilon theophrasti, ABUTH); assay: as above; settings: pre-emerge, rated 14 days after application, 0 = no damage, 100 = complete death
Summary of the method: as §3

[18] = test system: ivyleaf morningglory (Ipomoea hederacea, IPOHE); assay: as above; settings: pre-emerge, rated 14 days after application, 0 = no damage, 100 = complete death
Summary of the method: as §3

[19] = test system: barnyardgrass (Echinochloa crus-galli, ECHCG); assay: as above; settings: pre-emerge, rated 14 days after application, 0 = no damage, 100 = complete death
Summary of the method: as §3

[20] = test system: redroot pigweed (Amaranthus retroflexus, AMARE); assay: as above; settings: pre-emerge, rated 14 days after application, 0 = no damage, 100 = complete death
Summary of the method: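 Compounds in acetone were track-sprayed at 15-1000 g ai/ha (187 l/ha) on sandy loam pots: pre-emerge one day after seeding, post-emerge at 2-3 leaf stage with 0.25% v/v non-ionic surfactant. Phytotoxicity was rated 14 days later on a 0 (no damage) to 100 (complete death) scale.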

[21] = test system: upland rice (Oryza sp., var. Tebonnet, RICE); assay: Pre-emerge test, crop safety; settings: pre-emerge, rated 14 days after application, 0 = no damage, 100 = complete death
Summary of the method: (§4)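 Sandy loam pots; pre-emerge: sown 1 d pre-spray, surface-watered after, then bottom-watered. Post-emerge: sown 8–21 d before, 2–3 leaf stage, + 0.25% v/v NIS, bottom-watered. Acetone, 187 l/ha track spray, 15–1000 g ai/ha. 0–100 injury score, day 14.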

[22] = test system: field corn (Zea mays L., var. Dekalb 535, CORN); assay: Pre-emerge test, crop safety; settings: pre-emerge, rated 14 days after application, 0 = no damage, 100 = complete death
Summary of the method: as §4

For C#CCOc1c(Cl)cc(F)c(-n2c(=O)cc(C(F)(F)F)n(C)c2=O)c1N [Compound 1-19], which “Post-emerge Herbicidal Activity RICE (crop damage)” value ([1]; 63 g ai/ha) is on record?
The value was 25.

And the “Post-emerge Herbicidal Activity RICE (crop damage)” value ([1]; 250 g ai/ha)?
Its value is 80.

What about the “Post-emerge Herbicidal Activity CORN (crop damage)” value ([2]; 63 g ai/ha) of the same compound?
Its value is 5.

And the “Post-emerge Herbicidal Activity CORN (crop damage)” value ([2]; 250 g ai/ha)?
The value was 45.

What about the “Post-emerge Herbicidal Activity CASOB” value ([3]; 63 g ai/ha) of the same compound?
Its value is 10.

What about the “Post-emerge Herbicidal Activity CASOB” value ([3]; 250 g ai/ha) of the same compound?
Its value is 30.

And the “Post-emerge Herbicidal Activity CHEAL” value ([4]; 63 g ai/ha)?
Its value is 30.

And the “Post-emerge Herbicidal Activity CHEAL” value ([4]; 250 g ai/ha)?
The value was 90.

And the “Post-emerge Herbicidal Activity SETVI” value ([5]; 63 g ai/ha)?
Its value is 20.

What about the “Post-emerge Herbicidal Activity SETVI” value ([5]; 250 g ai/ha) of the same compound?
Its value is 95.

What about the “Post-emerge Herbicidal Activity AMARE” value ([6]; 63 g ai/ha) of the same compound?
Its value is 30.

And the “Post-emerge Herbicidal Activity AMARE” value ([6]; 250 g ai/ha)?
Its value is 70.

And the “Post-emerge Herbicidal Activity SORHA” value ([7]; 63 g ai/ha)?
Its value is 0.

What about the “Post-emerge Herbicidal Activity SORHA” value ([7]; 250 g ai/ha) of the same compound?
The value was 70.

And the “Post-emerge Herbicidal Activity DIGSA” value ([8]; 63 g ai/ha)?
Its value is 0.

And the “Post-emerge Herbicidal Activity DIGSA” value ([8]; 250 g ai/ha)?
The value was 10.

What about the “Post-emerge Herbicidal Activity ABUTH” value ([9]; 63 g ai/ha) of the same compound?
Its value is 100.

What about the “Post-emerge Herbicidal Activity ABUTH” value ([9]; 250 g ai/ha) of the same compound?
Its value is 100.

And the “Post-emerge Herbicidal Activity IPOHE” value ([10]; 63 g ai/ha)?
Its value is 30.

And the “Post-emerge Herbicidal Activity IPOHE” value ([10]; 250 g ai/ha)?
The value was 95.

And the “Post-emerge Herbicidal Activity ECHCG” value ([11]; 63 g ai/ha)?
The value was 0.

And the “Post-emerge Herbicidal Activity ECHCG” value ([11]; 250 g ai/ha)?
Its value is 80.

What about the “Pre-emerge Herbicidal Activity CASOB (phytotoxicity rating, scale 0-100)” value ([12]; 63 g ai/ha) of the same compound?
Its value is 90.

What about the “Pre-emerge Herbicidal Activity CASOB (phytotoxicity rating, scale 0-100)” value ([12]; 250 g ai/ha) of the same compound?
The value was 100.

What about the “Pre-emerge Herbicidal Activity CHEAL (phytotoxicity rating, scale 0-100)” value ([13]; 63 g ai/ha) of the same compound?
Its value is 100.

What about the “Pre-emerge Herbicidal Activity CHEAL (phytotoxicity rating, scale 0-100)” value ([13]; 250 g ai/ha) of the same compound?
Its value is 100.

What about the “Pre-emerge Herbicidal Activity SETVI (phytotoxicity rating, scale 0-100)” value ([14]; 63 g ai/ha) of the same compound?
The value was 100.

What about the “Pre-emerge Herbicidal Activity SETVI (phytotoxicity rating, scale 0-100)” value ([14]; 250 g ai/ha) of the same compound?
Its value is 100.

What about the “Pre-emerge Herbicidal Activity SORHA (phytotoxicity rating, scale 0-100)” value ([15]; 63 g ai/ha) of the same compound?
The value was 90.

And the “Pre-emerge Herbicidal Activity SORHA (phytotoxicity rating, scale 0-100)” value ([15]; 250 g ai/ha)?
Its value is 100.

What about the “Pre-emerge Herbicidal Activity DIGSA (phytotoxicity rating, scale 0-100)” value ([16]; 63 g ai/ha) of the same compound?
The value was 95.

And the “Pre-emerge Herbicidal Activity DIGSA (phytotoxicity rating, scale 0-100)” value ([16]; 250 g ai/ha)?
Its value is 100.

And the “Pre-emerge Herbicidal Activity ABUTH (phytotoxicity rating, scale 0-100)” value ([17]; 63 g ai/ha)?
Its value is 100.

What about the “Pre-emerge Herbicidal Activity ABUTH (phytotoxicity rating, scale 0-100)” value ([17]; 250 g ai/ha) of the same compound?
Its value is 100.

What about the “Pre-emerge Herbicidal Activity IPOHE (phytotoxicity rating, scale 0-100)” value ([18]; 63 g ai/ha) of the same compound?
The value was 60.

And the “Pre-emerge Herbicidal Activity IPOHE (phytotoxicity rating, scale 0-100)” value ([18]; 250 g ai/ha)?
Its value is 100.

What about the “Pre-emerge Herbicidal Activity ECHCG (phytotoxicity rating, scale 0-100)” value ([19]; 63 g ai/ha) of the same compound?
The value was 90.

What about the “Pre-emerge Herbicidal Activity ECHCG (phytotoxicity rating, scale 0-100)” value ([19]; 250 g ai/ha) of the same compound?
The value was 100.

And the “Pre-emerge Herbicidal Activity AMARE (phytotoxicity rating, scale 0-100)” value ([20]; 63 g ai/ha)?
The value was 95.

And the “Pre-emerge Herbicidal Activity AMARE (phytotoxicity rating, scale 0-100)” value ([20]; 250 g ai/ha)?
The value was 100.

What about the “Pre-emerge crop damage RICE (phytotoxicity rating, scale 0-100)” value ([21]; 63 g ai/ha) of the same compound?
The value was 80.

What about the “Pre-emerge crop damage RICE (phytotoxicity rating, scale 0-100)” value ([21]; 250 g ai/ha) of the same compound?
Its value is 95.

What about the “Pre-emerge crop damage CORN (phytotoxicity rating, scale 0-100)” value ([22]; 63 g ai/ha) of the same compound?
The value was 50.

What about the “Pre-emerge crop damage CORN (phytotoxicity rating, scale 0-100)” value ([22]; 250 g ai/ha) of the same compound?
Its value is 80.
